# Patent US9637488B2, “Heterocyclic compounds as inhibitors of class I PI3KS” (priority 2015, dated 2017)
# How the values were obtained:
# Type in all cases: biochemical
# PI3Kδ (p110δ/p85α) = PI3Kδ (p110δ/p85α) (Homo sapiens (Human), UniProt O00329); assay: cell-free PI3K HTRF assay, PI3Kδ; conditions: 10-dose IC50 mode, 3-fold serial dilution starting at 1 μM; ATP 10 μM; read-out: IC50 value for the inhibition of PI3Kδ
# PI3Kα (p110α/p85α) = PI3Kα (p110α/p85α) (Homo sapiens (Human), UniProt P42336); assay: cell-free PI3K HTRF assay, PI3Kα; conditions: ratio of IC50 against PI3Kα related to PI3Kδ; 10-dose, 3-fold serial dilution starting at 10 μM
# Method: (§1) Exemplary compounds of the invention were tested for inhibitory activity and potency against class I PI3Ks (p110α/p85α, p110β/p85α, p110δ/p85α and p110γ) using a cell-free based PI3K HTRF assay. This assay was used to detect the formation of the product 3,4,5-inositol triphosphate molecule (PIP3) by displacement of biotin-PIP3 from an energy transfer complex consisting of Europium labeled anti-GST monoclonal antibody, a GST-tagged pleckstrin homology (PH) domain, biotinylated PIP3 and Streptavidin-Allophycocyanin (APC). Excitation of Europium in the complex results in an energy transfer to the APC and a fluorescent emission at 665 nm. The PIP3 product formed by human PI 3-Kinase activity displaces biotin-PIP3 from the complex resulting in a loss of energy transfer and thus a decrease in signal.
# (§2) Human class I PI3K isoforms were co-expressed in a Baculovirus infected cell expression system. The PI3K isoforms were assayed in the presence of HEPES (50 mM, pH 7.0), NaN3 (0.02%), BSA (0.01%), orthovanadate (0.1 mM), and DMSO (1%). The exemplary compounds dissolved in DMSO were delivered into the kinase reaction mixture by Acoustic technology (Echo550; nanolitter range), and were pre-incubated for 10 min at room temperature before adding ATP (10 μM) to initiate the reaction. After 30 min at 30° C., the reactions were quenched with a stop solution, incubated overnight with a detection mixture before measuring HTRF (Ex: 320 nm; Em: 615/665 nm). The emission ratio is converted into μM PIP3 production based on PIP3 standard curves, and the nonlinear regression to obtain the standard curve and IC50 values are performed using Graphpad Prism software.
# (§3) The assays were performed at Reaction Biology Corporation, One Great Valley Parkway, Suite 2, Malvern, Pa. 19355, USA.
# (§4) Exemplary compounds of the invention selected were further tested their inhibitory activity or potency against PI3Kα, PI3Kβ, and PI3Kγ in 10-dose IC50 mode with 3-fold serial dilution starting at 10 μM. […] Table 5 below illustrates the selectivity of the exemplary compounds using the ratios of the IC50 values of the compounds against PI3Kα, PI3Kβ, and PI3Kγ related to PI3Kδ. […] Such unexpected selectivity against PI3Kδ and/or PI3Kγ is attributed to the unusual overall shape of the molecules of formula (I) and (II), and the optimal selection of R1, R2, R3, R4, X, and Y defined in formula (I) and (II) in order to bind favorably in the ATP-binding pocket of PI3Kδ and/or PI3Kγ versus other class I isozymes.
# PI3Kβ (p110β/p85α) = PI3Kβ (p110β/p85α) (Homo sapiens (Human), UniProt P42338); assay: cell-free PI3K HTRF assay, PI3Kβ; conditions: ratio of IC50 against PI3Kβ related to PI3Kδ; 10-dose, 3-fold serial dilution starting at 10 μM
# Method: as §1, §2, §3, §4
# PI3Kγ (p110γ) = PI3Kγ (p110γ) (Homo sapiens (Human), UniProt P48736); assay: cell-free PI3K HTRF assay, PI3Kγ; conditions: ratio of IC50 against PI3Kγ related to PI3Kδ; 10-dose, 3-fold serial dilution starting at 10 μM
# Method: as §1, §2, §3, §4
# PI3Kα (p110α/p85α), sequence (P42336 whole entry): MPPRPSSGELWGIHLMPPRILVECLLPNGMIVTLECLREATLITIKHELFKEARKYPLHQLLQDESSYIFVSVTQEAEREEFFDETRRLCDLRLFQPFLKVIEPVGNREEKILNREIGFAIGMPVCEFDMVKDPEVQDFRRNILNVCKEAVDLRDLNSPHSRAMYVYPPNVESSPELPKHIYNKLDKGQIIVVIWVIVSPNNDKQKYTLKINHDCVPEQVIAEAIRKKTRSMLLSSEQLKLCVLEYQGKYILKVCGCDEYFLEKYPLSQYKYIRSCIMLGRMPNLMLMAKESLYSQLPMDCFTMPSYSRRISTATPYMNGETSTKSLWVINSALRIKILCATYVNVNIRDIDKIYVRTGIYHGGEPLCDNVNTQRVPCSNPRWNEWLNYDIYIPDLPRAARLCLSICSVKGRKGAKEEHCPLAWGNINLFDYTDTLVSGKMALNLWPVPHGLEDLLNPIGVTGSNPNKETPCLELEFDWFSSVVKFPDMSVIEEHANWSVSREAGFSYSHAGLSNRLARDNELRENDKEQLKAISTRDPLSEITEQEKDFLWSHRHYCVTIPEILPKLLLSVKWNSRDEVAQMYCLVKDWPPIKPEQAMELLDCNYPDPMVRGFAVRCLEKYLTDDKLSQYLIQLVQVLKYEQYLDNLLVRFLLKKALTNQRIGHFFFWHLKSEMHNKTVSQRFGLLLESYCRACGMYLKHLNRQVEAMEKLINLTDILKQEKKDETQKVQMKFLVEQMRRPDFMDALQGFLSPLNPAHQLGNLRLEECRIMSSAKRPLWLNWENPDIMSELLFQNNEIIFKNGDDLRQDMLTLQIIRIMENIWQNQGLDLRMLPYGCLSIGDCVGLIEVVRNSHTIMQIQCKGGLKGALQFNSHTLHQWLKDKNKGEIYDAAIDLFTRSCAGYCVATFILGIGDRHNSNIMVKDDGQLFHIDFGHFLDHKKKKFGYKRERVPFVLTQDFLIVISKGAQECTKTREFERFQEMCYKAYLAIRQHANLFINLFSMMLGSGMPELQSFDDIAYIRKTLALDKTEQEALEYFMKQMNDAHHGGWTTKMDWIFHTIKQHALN
# PI3Kα (p110α/p85α), sequence (P27986 whole entry partner): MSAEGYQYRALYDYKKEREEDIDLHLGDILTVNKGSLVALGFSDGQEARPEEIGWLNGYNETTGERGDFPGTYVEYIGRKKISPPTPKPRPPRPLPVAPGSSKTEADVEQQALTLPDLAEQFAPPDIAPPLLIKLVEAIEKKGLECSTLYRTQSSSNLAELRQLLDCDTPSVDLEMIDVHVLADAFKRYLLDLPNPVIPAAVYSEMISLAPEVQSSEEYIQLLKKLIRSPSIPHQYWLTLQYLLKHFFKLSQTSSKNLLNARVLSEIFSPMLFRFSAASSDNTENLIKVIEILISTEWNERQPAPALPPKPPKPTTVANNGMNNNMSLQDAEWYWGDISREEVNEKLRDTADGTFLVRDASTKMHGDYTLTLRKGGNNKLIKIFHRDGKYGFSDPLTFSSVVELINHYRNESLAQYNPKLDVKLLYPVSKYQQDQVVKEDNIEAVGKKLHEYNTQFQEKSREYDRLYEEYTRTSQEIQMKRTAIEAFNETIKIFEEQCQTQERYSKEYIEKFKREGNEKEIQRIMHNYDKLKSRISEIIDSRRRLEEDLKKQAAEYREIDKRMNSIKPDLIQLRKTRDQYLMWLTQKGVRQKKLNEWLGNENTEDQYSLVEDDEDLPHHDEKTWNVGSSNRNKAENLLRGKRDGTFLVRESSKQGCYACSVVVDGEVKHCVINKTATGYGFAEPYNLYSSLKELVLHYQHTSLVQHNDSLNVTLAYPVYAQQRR
# PI3Kγ (p110γ), sequence (P48736 whole entry): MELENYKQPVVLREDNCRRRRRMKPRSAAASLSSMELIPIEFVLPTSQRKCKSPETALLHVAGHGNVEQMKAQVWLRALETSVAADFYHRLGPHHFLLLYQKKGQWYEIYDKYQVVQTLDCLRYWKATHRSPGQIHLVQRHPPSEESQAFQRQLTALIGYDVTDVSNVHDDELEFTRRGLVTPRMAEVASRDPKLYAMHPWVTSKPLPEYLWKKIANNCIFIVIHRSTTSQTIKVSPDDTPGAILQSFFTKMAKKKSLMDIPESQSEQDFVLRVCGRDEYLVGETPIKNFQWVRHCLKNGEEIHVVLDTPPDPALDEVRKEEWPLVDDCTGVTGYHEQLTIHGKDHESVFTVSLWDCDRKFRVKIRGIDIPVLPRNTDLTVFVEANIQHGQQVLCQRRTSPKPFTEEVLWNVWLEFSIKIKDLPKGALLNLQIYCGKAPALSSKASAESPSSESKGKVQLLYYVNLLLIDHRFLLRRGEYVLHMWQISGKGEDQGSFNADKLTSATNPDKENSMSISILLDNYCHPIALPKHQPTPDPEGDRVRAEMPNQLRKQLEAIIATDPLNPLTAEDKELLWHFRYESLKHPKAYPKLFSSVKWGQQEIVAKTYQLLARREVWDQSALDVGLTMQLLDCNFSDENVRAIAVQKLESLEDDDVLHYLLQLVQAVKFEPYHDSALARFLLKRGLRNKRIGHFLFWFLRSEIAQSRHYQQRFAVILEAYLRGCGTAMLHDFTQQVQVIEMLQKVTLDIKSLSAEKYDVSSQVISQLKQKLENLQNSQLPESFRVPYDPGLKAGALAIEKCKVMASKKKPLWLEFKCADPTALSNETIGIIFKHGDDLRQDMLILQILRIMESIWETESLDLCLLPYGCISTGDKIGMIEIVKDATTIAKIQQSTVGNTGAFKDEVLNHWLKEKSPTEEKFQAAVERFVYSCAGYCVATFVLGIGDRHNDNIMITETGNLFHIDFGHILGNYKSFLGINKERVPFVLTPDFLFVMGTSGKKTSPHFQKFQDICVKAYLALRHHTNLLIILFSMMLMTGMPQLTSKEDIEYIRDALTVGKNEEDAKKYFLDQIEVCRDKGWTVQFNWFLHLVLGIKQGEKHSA
# PI3Kβ (p110β/p85α), sequence (P42338 whole entry): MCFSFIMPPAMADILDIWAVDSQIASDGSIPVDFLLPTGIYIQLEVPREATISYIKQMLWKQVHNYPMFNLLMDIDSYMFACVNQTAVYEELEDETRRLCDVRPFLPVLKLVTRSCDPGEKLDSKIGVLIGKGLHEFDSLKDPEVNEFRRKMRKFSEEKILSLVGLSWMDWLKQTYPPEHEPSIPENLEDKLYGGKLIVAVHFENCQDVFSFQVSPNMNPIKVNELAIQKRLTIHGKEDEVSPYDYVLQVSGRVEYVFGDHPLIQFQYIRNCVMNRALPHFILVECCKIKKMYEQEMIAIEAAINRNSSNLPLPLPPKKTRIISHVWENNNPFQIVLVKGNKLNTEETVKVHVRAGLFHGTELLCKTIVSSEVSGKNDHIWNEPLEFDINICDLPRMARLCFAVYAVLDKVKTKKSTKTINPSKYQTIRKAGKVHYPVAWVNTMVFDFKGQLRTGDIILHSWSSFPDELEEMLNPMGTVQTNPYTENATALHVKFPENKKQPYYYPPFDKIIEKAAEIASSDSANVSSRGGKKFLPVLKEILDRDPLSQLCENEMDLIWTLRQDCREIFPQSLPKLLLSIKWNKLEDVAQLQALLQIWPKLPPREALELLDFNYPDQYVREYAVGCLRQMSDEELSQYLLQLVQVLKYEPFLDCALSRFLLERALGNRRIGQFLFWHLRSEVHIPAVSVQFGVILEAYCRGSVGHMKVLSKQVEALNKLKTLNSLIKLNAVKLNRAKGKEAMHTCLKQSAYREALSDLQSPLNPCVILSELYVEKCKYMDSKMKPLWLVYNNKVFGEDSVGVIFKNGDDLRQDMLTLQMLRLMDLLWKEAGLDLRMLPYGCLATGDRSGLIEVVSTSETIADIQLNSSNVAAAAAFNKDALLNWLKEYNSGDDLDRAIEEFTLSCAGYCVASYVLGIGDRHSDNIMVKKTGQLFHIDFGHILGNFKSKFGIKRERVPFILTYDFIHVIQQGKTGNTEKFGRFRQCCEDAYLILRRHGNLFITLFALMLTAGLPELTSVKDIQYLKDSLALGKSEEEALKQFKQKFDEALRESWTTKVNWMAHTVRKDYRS
# PI3Kβ (p110β/p85α), sequence (P27986 whole entry partner): as the sequence (P27986 whole entry partner) above
# PI3Kδ (p110δ/p85α), sequence (O00329 whole entry): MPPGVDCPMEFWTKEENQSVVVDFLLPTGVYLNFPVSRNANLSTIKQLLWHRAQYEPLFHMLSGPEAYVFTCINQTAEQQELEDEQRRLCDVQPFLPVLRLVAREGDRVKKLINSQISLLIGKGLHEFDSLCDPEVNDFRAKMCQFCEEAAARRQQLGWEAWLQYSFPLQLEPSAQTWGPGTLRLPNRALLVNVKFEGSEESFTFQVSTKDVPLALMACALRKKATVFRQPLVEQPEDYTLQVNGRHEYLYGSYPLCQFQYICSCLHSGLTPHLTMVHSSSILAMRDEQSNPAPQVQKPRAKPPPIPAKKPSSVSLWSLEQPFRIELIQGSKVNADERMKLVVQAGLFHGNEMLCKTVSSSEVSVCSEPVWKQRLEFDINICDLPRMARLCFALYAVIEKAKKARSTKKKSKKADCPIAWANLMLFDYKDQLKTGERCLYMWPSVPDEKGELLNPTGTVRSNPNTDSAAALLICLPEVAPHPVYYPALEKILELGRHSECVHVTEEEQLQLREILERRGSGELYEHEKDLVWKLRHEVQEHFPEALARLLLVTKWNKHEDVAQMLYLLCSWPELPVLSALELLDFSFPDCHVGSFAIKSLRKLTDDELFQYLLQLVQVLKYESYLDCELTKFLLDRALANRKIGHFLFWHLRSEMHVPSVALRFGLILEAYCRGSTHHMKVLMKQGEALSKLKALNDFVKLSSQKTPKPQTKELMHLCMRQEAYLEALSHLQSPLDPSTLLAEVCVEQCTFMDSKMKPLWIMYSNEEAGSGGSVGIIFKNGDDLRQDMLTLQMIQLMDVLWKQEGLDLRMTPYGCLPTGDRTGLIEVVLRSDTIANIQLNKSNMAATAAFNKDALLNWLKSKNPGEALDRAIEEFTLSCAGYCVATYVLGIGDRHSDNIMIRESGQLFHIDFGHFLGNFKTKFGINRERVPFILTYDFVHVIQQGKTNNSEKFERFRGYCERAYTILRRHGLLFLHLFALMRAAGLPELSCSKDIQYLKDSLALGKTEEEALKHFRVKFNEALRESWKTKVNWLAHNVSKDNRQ
# PI3Kδ (p110δ/p85α), sequence (P27986 whole entry partner): as the sequence (P27986 whole entry partner) above
Compound,IC50 (PI3Kδ (p110δ/p85α)),Ratio (α/δ) (PI3Kα (p110α/p85α)),Ratio (β/δ) (PI3Kβ (p110β/p85α)),Ratio (γ/δ) (PI3Kγ (p110γ))
Fc1ccc2cc([C@@H]3CCCN3c3ncnc4[nH]cnc34)c(-c3ccccn3)nc2c1 [Compound 62],12.8 nM,>781,520,53
Nc1nc(N2CCCC2c2cc3ccc(F)cc3nc2N2CCCCC2)c2nc[nH]c2n1 (stereo not shown) [Compound 17],0.9 nM,5958,1714,1.1
Fc1ccc2cc(C3CCCN3c3ncnc4[nH]cnc34)c(-c3ccncc3)nc2c1 (stereo not shown) [Compound 14],521 nM,>19,4.2,3.3
Fc1ccc2cc(C3CC=CCN3c3ncnc4[nH]cnc34)c(N3CCOCC3)nc2c1 (stereo not shown) [Compound 43],6.8 nM,689,169,39
"Fc1ccc2cc(C3CCCCN3c3ncnc4[nH]cnc34)c(N3CCOCC3)nc2c1 (stereo not shown) [Compound 38, 4-(3-(1-(9H-purin-6-yl)piperidin-2-yl)-7-fluoroquinolin-2-yl)morpholine]",7.1 nM,529,537,106
N#Cc1c(N)ncnc1N1CCC[C@H]1c1cc2cccc(Cl)c2nc1-c1ccccc1 [Compound 67],< 0.05 nM,>8583,1368,>5.6
"Fc1ccc2cc(C3CCCN3c3ncnc4[nH]cnc34)c(-c3ccccn3)nc2c1 (stereo not shown) [Compound 10, 3-(1-(9H-purin-6-yl)pyrrolidin-2-yl)-7-fluoro-2-(pyridin-2-yl)quinoline]",13 nM,>781,519,53
